Like-named read-outs stand apart in the source and are kept apart here.
Assays:
[1] = test system: wireworm (Melanotus communis); experiment: Test B.1.1 control of wireworm, direct contact (dip) method; type: in vivo; details: mortality 3 DAT
Procedure: For evaluating control of wireworm (Melanotus communis) through direct contact method, the individual insects were dipped directly into compound solution.
The compounds or mixtures were dissolved in acetone at different concentrations. The compounds or mixtures were formulated using a solution containing 50% (v/v) acetone in water with 0.02 wt % Kinetic®.
For the experimental mixtures, identical volumes of both mixing partners were mixed together to achieve the desired respective concentrations. Wireworms were dipped directly into solution for three seconds and then allowed to air dry on filter paper.
About 11 cm^3 of water-moistened loamy sand was dispensed into each 16-cm^2 cell of a 32-cell rearing tray. One treated wireworm larva was infested into each cell along with two germinating wheat seeds. Cells were then covered with adhesive bio-assay tray lids. Each cell was a replicate and replication was 10×. After infestation, the test was maintained in an incubator at 26±1° C. in the dark. Mortality (dead+moribund insects) was evaluated 3 days after treatment (DAT) and mean percent mortality was calculated relative to the untreated control.

[2] = test system: seedcorn maggot (Della platura); experiment: Test B.1.4 control of seedcorn maggot, maximum exposure to treated soil; type: in vivo; details: mortality 2 DAT
Excerpt: For evaluating control of seedcorn maggot (Della platura) through maximum exposure, the insects were exposed to treated soil.
The compounds or mixtures were first dissolved in acetone, and then mixed with soil to obtain the desired different ppm concentrations (w/w) of compound/soil or mixture/soil. For experimental mixtures, identical volumes of both mixing partners were mixed together to achieve the desired respective concentrations. Treatments were applied in solution to dry, sifted (#10 sieve) play sand in a glass jar. Treatments were thoroughly incorporated by capping and shaking each jar by hand and allowing the solution to soak through the sand mass for at least 10 minutes. The jars were then uncapped and the sand was kept in a fume hood for 4 hours to evaporate the solvent.
After the sand was dry, 10 cm^3 of the treated sand was dispensed into a 1-oz. plastic cup with bone meal in the bottom as a food source. Each cup was moistened with 4 ml water, infested with five seedcorn maggot second-instar larvae, and covered. Each cup was a replicate and replication was 5×. The test was maintained in an incubator at 22±1° C. in the dark. Mortality (dead+moribund insects) was evaluated 2 days after treatment (DAT) and mean percent mortality was calculated relative to the untreated control.

Pyricularia oryzae = type: cell-based; details: MTP, 7 days after inoculation
Alternaria solani = experiment: B.2.2 microtest, activity against early blight; type: cell-based; details: MTP, 7 days after inoculation
Microdochium nivale = experiment: B.2.3 microtest, activity against Microdochium nivale; type: cell-based; details: MTP, 7 days after inoculation
[3] = test system: root-knot nematodes (Meloidogyne spp.); experiment: Test B.1.5 control of root-knot nematodes, drench application on cucumber plants; type: in vivo; details: four weeks after infestation
Procedure: For evaluating control of root-knot nematodes (Meloidogyne spp.) through exposure via drench application, the nematodes were introduced to treated cucumber plants.
The compounds or mixtures were dissolved in acetone at different concentrations. The compounds or mixtures were formulated using a solution containing 50% (v/v) acetone in water with 0.02 wt % Kinetic®. For experimental mixtures, identical volumes of both mixing partners were mixed together to achieve the desired respective concentrations.
Germinated cucumber seeds were planted in 1-oz black plastic cups (one seed per cup) with dry, sifted (#10 sieve) play sand. Treatments were applied as a drench in 7 ml solution to each cup which were held in a fume hood for 1 hour to allow acetone to evaporate. The cups were moved to an environmental chamber (25±2° C., 24 L) and watered daily for the duration of the test. Each cup was a replicate and replication was 5×. At the cucumber's cotyledon stage, each cup was infested with 500 root-knot nematode juveniles (J2s) in 1 ml distilled water.
Four weeks after infestation, cucumber roots were washed off and galls and egg masses were counted. Control was calculated as the reduction in galls or egg masses relative to the untreated control. Mean percent control was calculated for each treatment.

Rhizoctonia solani = experiment: B.2.4 microtest, activity against Rhizoctonia solani; type: cell-based; details: MTP, 7 days after inoculation
[4] = test system: western corn rootworm (Diabrotica virgifera virgifera); experiment: Test B.1.2 control of western corn rootworm, maximum exposure to treated soil; type: in vivo; details: mortality 3 DAI
Excerpt: For evaluating control of western corn rootworm (Diabrotica virgifera virgifera) through maximum exposure method, the insects were exposed to treated soil.
The compounds or mixtures were first dissolved in acetone, and then mixed with soil to obtain the desired different ppm concentrations (w/w) of compound/soil or mixture/soil. For experimental mixtures, identical volumes of both mixing partners were mixed together to achieve the desired respective concentrations. Treatments were applied in solution to sifted (#10 sieve) loamy sand in a plastic bag. Treatments were thoroughly incorporated by sealing and shaking each bag by hand and allowing the solution to soak through the soil mass for at least 10 minutes. Bags were then unsealed and kept open in a fume hood overnight to evaporate the solvent from the soil.
One day after treatment (DAT) water for moisture and water-soaked millet seed as a food source were added to each bag and incorporated thoroughly. About 11 cm^3 of the millet and soil mixture was dispensed into a 1-oz. plastic cup. Each cup was infested with 10 western corn rootworm second-instar larvae and covered. Each cup was a replicate and replication was 3×. The test was maintained in an incubator at 26±1° C. in the dark. Mortality (dead+moribund insects) was evaluated 3 days after infestation (DAI) and mean percent mortality was calculated relative to the untreated control.

[5] = test system: black cutworm (Agrotis ipsilon); experiment: Test B.1.3 control of black cutworm, direct contact (dip) method; type: in vivo; details: for Average Control % 1 DAT: mortality 1 DAT; for Average Control % 5 DAT: mortality 5 DAT
Procedure: For evaluating control of black cutworm (Agrotis ipsilon) through direct contact method, the individual insects were dipped directly into compound solution.
The compounds or mixtures were dissolved in acetone at different concentrations. The compounds or mixtures were formulated using a solution containing 50% (v/v) acetone in water with 0.02 wt % Kinetic®. For experimental mixtures, identical volumes of both mixing partners were mixed together to achieve the desired respective concentrations. Second-instar black cutworms were dipped directly into solution for three seconds and then allowed to air dry on filter paper. One treated black cutworm larva was infested into each 16-cm^2 cell of a 32-cell rearing tray along with the excised shoot of a corn plant and a moistened cotton wick. Cells were then covered with adhesive bio-assay tray lids. Each cell was a replicate and replication was 16×. After infestation, the test was maintained in an incubator at 25.5±1° C. and a 14L:10D light cycle. Mortality (dead+moribund insects) was evaluated 1 and 5 days after treatment (DAT) and mean percent mortality was calculated relative to the untreated control.

emamectin
Average Control % ([1]; 800 ppm): 11%

CN(C(=O)c1ccccc1)c1cccc(C(=O)Nc2c(Br)cc(C(F)(C(F)(F)F)C(F)(F)F)cc2C(F)(F)F)c1F [Carboxamide compound of formula I]
Average Control % ([2]; 0.06 ppm compound/soil): 21% | Observed efficacy (Pyricularia oryzae; 0.063 ppm): 2 | Observed efficacy (Pyricularia oryzae; 1 ppm): 12 | Observed efficacy (Pyricularia oryzae; 4 ppm): 15 | Observed efficacy (Pyricularia oryzae; 16 ppm): 4 | Average Control % ([1]; 3 ppm): 33% | Observed efficacy (Alternaria solani; 1 ppm): 0 | Observed efficacy (Alternaria solani; 4 ppm): 0 | Observed efficacy (Alternaria solani; 16 ppm): 0 | Observed efficacy (Alternaria solani; 63 ppm): 0 | Observed efficacy (Microdochium nivale; 4 ppm): 13 | Observed efficacy (Microdochium nivale; 16 ppm): 15 | Observed efficacy (Microdochium nivale; 63 ppm): 4 | Average Egg Mass Control % ([3]; 0.3 mg compound/plant): −21% | Average Gall Control % ([3]; 0.3 mg compound/plant): 35% | Observed efficacy (Rhizoctonia solani; 1 ppm): 0 | Observed efficacy (Rhizoctonia solani; 4 ppm): 0 | Observed efficacy (Rhizoctonia solani; 16 ppm): 0 | Average Control % ([4]; 0.01 ppm compound/soil): 30% | Average Control % 1 DAT ([5]; 3 ppm): 38% | Average Control % 5 DAT ([5]; 3 ppm): 44%

O=[N+]([O-])NC1=NCCN1Cc1ccc(Cl)nc1 [Imidacloprid]
Average Control % ([2]; 3 ppm compound/soil): 18% | Average Control % ([4]; 0.13 ppm compound/soil): 17%

CN/C(=N\[N+](=O)[O-])NCc1cnc(Cl)s1 [Clothianidin]
Average Control % ([4]; 0.1 ppm compound/soil): 33%

CNC(=O)c1cc(C#N)cc(C)c1NC(=O)c1cc(Br)nn1-c1ncccc1Cl [Cyantraniliprole, cyantraniliprole]
Average Control % ([2]; 10 ppm compound/soil): 64% | Average Control % ([1]; 225 ppm): 22% | Average Control % ([4]; 3.1 ppm compound/soil): 23%

Abamectin
Average Egg Mass Control % ([3]; 0.008 mg compound/plant): 17% | Average Gall Control % ([3]; 0.008 mg compound/plant): 24% | Average Egg Mass Control % ([3]; 0.017 mg compound/plant): 39% | Average Gall Control % ([3]; 0.017 mg compound/plant): 40%

CN1COCN(Cc2cnc(Cl)s2)/C1=N\[N+](=O)[O-] [Thiamethoxam]
Average Control % ([1]; 25 ppm): 11%

N#C/N=C1\SCCN1Cc1ccc(Cl)nc1 [Thiacloprid]
Average Control % ([4]; 0.2 ppm compound/soil): 37%

N#Cc1nn(-c2c(Cl)cc(C(F)(F)F)cc2Cl)c(N)c1[S+]([O-])C(F)(F)F (centres unmarked) [Fipronil]
Average Control % ([1]; 30 ppm): 22% | Average Control % ([4]; 0.03 ppm compound/soil): 27% | Average Control % 1 DAT ([5]; 300 ppm): 13% | Average Control % 5 DAT ([5]; 300 ppm): 31%

CC1(C)CCC(=Cc2ccc(Cl)cc2)C1(O)Cn1cncn1 (centres unmarked) [Triticonazol, Triticonazole]
Observed efficacy (Alternaria solani; 0.25 ppm): 0 | Observed efficacy (Alternaria solani; 1 ppm): 23 | Observed efficacy (Rhizoctonia solani; 0.25 ppm): 41

COC(=O)N(OC)c1ccccc1COc1ccn(-c2ccc(Cl)cc2)n1 [Pyraclostrobin]
Observed efficacy (Alternaria solani; 0.016 ppm): 0 | Observed efficacy (Alternaria solani; 0.063 ppm): 12 | Observed efficacy (Microdochium nivale; 0.016 ppm): 46

Fc1ccc([C@]2(Cn3cncn3)O[C@H]2c2ccccc2Cl)cc1 (racemic) [Epoxiconazol, Epoxiconazole]
Observed efficacy (Pyricularia oryzae; 0.063 ppm): 1 | Observed efficacy (Pyricularia oryzae; 0.25 ppm): 28 | Observed efficacy (Microdochium nivale; 0.004 ppm): 8 | Observed efficacy (Microdochium nivale; 0.016 ppm): 29 | Observed efficacy (Rhizoctonia solani; 0.001 ppm): 0 | Observed efficacy (Rhizoctonia solani; 0.004 ppm): 0 | Observed efficacy (Rhizoctonia solani; 0.016 ppm): 24

Cn1cc(C(=O)Nc2ccccc2-c2cc(F)c(F)c(F)c2)c(C(F)F)n1 [Fluxapyroxad]
Observed efficacy (Microdochium nivale; 0.004 ppm): 0 | Observed efficacy (Microdochium nivale; 0.063 ppm): 0
